According to US10683265B1, “Cannabidiol-3-sulfonic acid, preparation method and application thereof, and cannabidiol derivative” (Yantai Hemp Biotechnology Co., Ltd., priority 2019, dated 2020):
≈ marks a conversion by molar mass, not a printed value. Where two headings read alike, the source gives them in different places.

How the values were obtained:
[1] = Solubility determining in water by HPLC (saturated solutions, external standard method); assay type: physicochemical; details: for solubility: thermodynamic from solid
From the text: 1. Solubility Determining:
1) Instruments and reagents: Thermo Fisher UltiMate 3000 high performance liquid chromatography (Thermo, USA); chromatographic column (Phenomenex Gemini C18, 5μ, 250×4.6 mm); electronic balance (METTLER TOLEDO instruments (Shanghai) Co., Ltd.); cannabidiol (commercially available), cannabidiol-3-sulfonic acid (prepared in Embodiment 1) and sodium cannabidiol-3-sulfonate (prepared in Embodiment 3). chromatography acetonitrile (Merck, Germany); water was Milli-Q ultrapure water, the remaining reagents were analytically pure.
Three clean 10 mL penicillin bottles were taken, 6 mL of ultrapure water was added accurately in each of the penicillin bottles, and the weight was weighed accurately. Cannabidiol, cannabidiol-3-sulfonic acid and sodium cannabidiol-3-sulfonate were separately added at room temperature until ultrasonic treatment was performed for 10 min and the samples still could not be completely dissolved, to obtain saturated solutions of three compounds respectively; the solutions stood overnight at room temperature, and supernatants were taken as solutions of samples for test (supernatants of the cannabidiol-3-sulfonic acid and the sodium cannabidiol-3-sulfonate were diluted by appropriate times depending on the detection situation).
An appropriate amount of cannabidiol, cannabidiol-3-sulfonic acid and sodium cannabidiol-3-sulfonate were taken and were prepared into solutions with a concentration of 0.2 mg·mL^−1 as reference substance solutions by using 10% acetonitrile-0.5% acetic acid solution.
The samples were determined by high performance liquid chromatography (Appendix V D of Part II of Chinese Pharmacopoeia).
Chromatographic conditions and system suitability Octadecylsilane bonded silica was used as a filler; 10% acetonitrile—0.5% acetic acid→75% acetonitrile—0.5% acetic acid were used as mobile phases; the wavelength was detected to be 225 nm; and the theoretical plate numbers were not less than 4,000 on a basis of cannabidiol, cannabidiol-3-sulfonic acid and sodium cannabidiol-3-sulfonate.
A measurement method includes: precisely measuring and injecting 20 μL of solution of sample for test into a liquid chromatograph, and recording a chromatogram; and taking a reference substance solution and measuring the reference substance solution according to the same method. The concentrations of the three compounds in the solution of sample for test were calculated by an external standard method according to a peak area.

[2] = high-purity CBD, cited from earlier work
[3] = in water, room temperature, saturated solution stood overnight, supernatant measured by HPLC, read-out: Solubility

Structure (SMILES): C=C(C)[C@@H]1CCC(C)=C[C@H]1c1c(O)cc(CCCCC)cc1O [Cannabidiol, 2-[(1R,6R)-3-methyl-6-(1-methylvinyl)-2-cyclohexen-1-yl]-5-pentyl-1,3-benzenediol]
- Solubility in water (in words) ([1]; in water at room temperature): slightly soluble
- solubility [1, 3]: 0.41 mg/mL (≈ 1.3 mM)
- Solubility in organic solvents (in words) ([2]; ethanol, methanol, ether, benzene, chloroform, petroleum ether and other organic solvents): soluble
- Solubility in water or 10% sodium hydroxide solution (in words) ([2]; water or 10% sodium hydroxide solution): almost insoluble

Structure (SMILES): C=C(C)[C@@H]1CCC(C)=C[C@H]1c1c(O)cc(CCCCC)c(S(=O)(=O)O)c1O [Cannabidiol-3-sulfonic acid, (1′R,2′R)-2,6-dihydroxy-5′-methyl-4-pentyl-2″-(propyl-1-en-2-yl)-1″,2′,3′,4′-tetrahydro-[1,1′-biphenyl]-3-sulfonic acid]
- solubility ([1]; water): 56.2 mg/mL (≈ 142 mM)

Structure (SMILES): C=C(C)[C@@H]1CCC(C)=C[C@H]1c1c(O)cc(CCCCC)c(S(=O)(=O)[O-])c1O.[Na+] [Sodium cannabidiol-3-sulfonate, sodium cannabidiol-3-sulfonate]
- solubility [1, 3]: 486 mg/mL
